The species entered for one assay is Cavia porcellus. The experiment in a line: Selectivity ratio of pKb for Cavia porcellus (guinea pig) ileum M3 receptor to pKb for Cavia porcellus (guinea pig) left atria M2 receptor. Format: tissue-based. The conditions noted are these: Atrium/Ileum.
Assay [1] addresses T1, Muscarinic receptor 2 (Cavia porcellus) (UniProt Q8VH27).
T1 sequence (whole entry): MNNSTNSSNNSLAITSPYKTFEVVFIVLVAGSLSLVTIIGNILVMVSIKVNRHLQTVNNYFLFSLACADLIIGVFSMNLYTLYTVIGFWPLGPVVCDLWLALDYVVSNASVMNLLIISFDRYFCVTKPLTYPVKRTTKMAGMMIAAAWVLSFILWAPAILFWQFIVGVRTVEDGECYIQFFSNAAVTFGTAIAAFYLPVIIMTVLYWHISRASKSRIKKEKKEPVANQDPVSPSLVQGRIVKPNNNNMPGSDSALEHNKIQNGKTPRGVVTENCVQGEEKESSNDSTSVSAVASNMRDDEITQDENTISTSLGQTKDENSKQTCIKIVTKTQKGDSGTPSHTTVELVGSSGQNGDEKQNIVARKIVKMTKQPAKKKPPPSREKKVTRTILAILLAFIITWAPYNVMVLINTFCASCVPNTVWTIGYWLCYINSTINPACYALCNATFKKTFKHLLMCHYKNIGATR
Put plainly: Binding affinity to Cavia porcellus (guinea pig) left atria M2 receptor after 2 hr.

The species entered for a further assay is Oryctolagus cuniculus. The experiment in a line: Binding affinity to Oryctolagus cuniculus (rabbit) vas deferens M1 receptor after 1 hr.
Assay [2] in a line: Selectivity ratio of pKb for rabbit vas deferens M1 receptor to pKb for guinea pig ileum M3 receptor. Format: tissue-based.
In assay [3] the target is Muscarinic acetylcholine receptor M3 (Cavia porcellus) (UniProt Q8VH26). Put plainly: Binding affinity to Cavia porcellus (guinea pig) ileum M3 receptor after 30 min. It is filed as tissue-based.
Muscarinic acetylcholine receptor M3 (Cavia porcellus), sequence (Q8VH26 1-587): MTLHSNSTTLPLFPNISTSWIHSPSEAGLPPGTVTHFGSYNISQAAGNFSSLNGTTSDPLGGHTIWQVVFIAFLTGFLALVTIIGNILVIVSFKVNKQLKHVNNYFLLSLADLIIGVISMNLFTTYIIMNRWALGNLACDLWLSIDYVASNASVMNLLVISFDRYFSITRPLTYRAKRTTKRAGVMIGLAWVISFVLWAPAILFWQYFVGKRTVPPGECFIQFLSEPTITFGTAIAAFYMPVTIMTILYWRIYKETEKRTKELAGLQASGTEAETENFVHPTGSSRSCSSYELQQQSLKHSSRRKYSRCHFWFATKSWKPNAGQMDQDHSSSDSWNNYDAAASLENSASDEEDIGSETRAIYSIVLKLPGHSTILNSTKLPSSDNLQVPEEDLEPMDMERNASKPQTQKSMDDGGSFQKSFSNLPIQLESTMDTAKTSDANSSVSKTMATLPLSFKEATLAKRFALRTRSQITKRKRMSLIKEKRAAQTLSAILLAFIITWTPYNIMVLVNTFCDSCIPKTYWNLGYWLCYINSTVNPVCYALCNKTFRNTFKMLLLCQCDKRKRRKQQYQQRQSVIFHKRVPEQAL
Assay [4] is described as follows: Selectivity ratio of pKb for rabbit vas deferens M1 receptor to pKb for guinea pig left atria M2 receptor.
Another assay has as its target T2, Muscarinic receptor 2 (Cavia porcellus, UniProt Q8VH27).
T2 sequence (Q8VH27 whole entry): T1 sequence (whole entry)
The experiment in a line: Antagonist activity at Cavia porcellus (guinea pig) left atria M2 receptor after 2 hr. The conditions noted are these: read-out: pA2 (converted).

The target of assay [5] is Muscarinic acetylcholine receptor M3 (Cavia porcellus, UniProt Q8VH26). Put plainly: Antagonist activity at Cavia porcellus (guinea pig) ileum M3 receptor after 30 min. It is filed as tissue-based. The conditions noted are these: read-out: pA2 (converted).
Muscarinic acetylcholine receptor M3, sequence (Q8VH26 whole entry): as the sequence (Q8VH26 1-587) above

SMILES strings stand for the structures.

As to `CN(C)C[C@@H]1CO[C@@H](C(c2ccccc2)c2ccccc2)O1`, the Ratio pKb worked out at 1 in the assay listed under Cavia porcellus, 2 in assay [2] and 2 in assay [4]. Besides, the pKb in assay [1] is 6.56; in the assay filed under Oryctolagus cuniculus it was 6.9; in assay [3], 6.67.

With `CN(C)[C@H]1CO[C@H](C(c2ccccc2)c2ccccc2)OC1`, the Kb on Muscarinic receptor 2 is 1.58 µM; in assay [5], 0.372 µM.

Regarding `CN(C)[C@H]1CO[C@@H](C(c2ccccc2)c2ccccc2)OC1`, the results for the Kb (at Muscarinic receptor 2; in assay [5]) were 0.0282 µM and 0.00537 µM, respectively.

Regarding `CN(C)CC1COC(c2ccccc2)(c2ccccc2)O1` (centres undefined), the Ratio pKb stood at 0.4 in the assay listed under Cavia porcellus, 3 in assay [2] and 1 in assay [4]. For the same compound, the results for the pKb (in assay [1]; in the assay filed under Oryctolagus cuniculus; in assay [3]) were 7.11, 7.15 and 6.72, respectively.

`C[C@H]1OC(c2ccccc2)(c2ccccc2)O[C@@H]1CN(C)C` (relative stereo): the Ratio pKb (in the assay filed under Cavia porcellus; in assay [2]; in assay [4]) was 1 each time. Further, the pKb in assay [1] worked out at 6.71; in the assay filed under Oryctolagus cuniculus it was 6.87; in assay [3] it was 6.71.

As for `CN(C)C[C@@H]1CO[C@H](C(c2ccccc2)c2ccccc2)O1`, the Ratio pKb turned out to be 0.3 in the assay filed under Cavia porcellus, 17 in assay [2] and 5 in assay [4]. For the same compound, the negative-log Kb (pKb) was 6.62 in assay [1], 7.31 in the assay listed under Oryctolagus cuniculus and 6.07 in assay [3].

Consider `C[C@@H]1OC(c2ccccc2)(c2ccccc2)O[C@@H]1CN(C)C` (relative stereo), for which the values for the Ratio pKb (in the assay listed under Cavia porcellus; in assay [2]; in assay [4]) were 0.9, 0.8 and 0.7, respectively. The results for the pKb (in assay [1]; in the assay listed under Oryctolagus cuniculus; in assay [3]) were 6.48, 6.35 and 6.44, respectively.

One may read the pKb as the Kb on a negative log10 scale, so that one unit is a factor of ten. Read a low pKb as a high Kb.

Source of the values: ChEMBL document CHEMBL3046433, “Synthesis and Antimuscarinic Activity of Derivatives of 2-Substituted-1,3-Dioxolanes” (Med Chem Res, 2005).
